Source: patent US20050228180A1, “Alpha, omega-dicarboximide derivatives as useful uro-selective a1a adrenoceptor blockers” (priority 2002, published 2005)
pKi: −log10 of the molar value. Structures can show the parent of a compound that is named as a salt.

Target: T1, α1A adrenoceptor (Rattus norvegicus, UniProt P43140)
T1 construct: from tissue; host or cells: rat submaxillary gland membranes
T1 sequence (P43140 1-466): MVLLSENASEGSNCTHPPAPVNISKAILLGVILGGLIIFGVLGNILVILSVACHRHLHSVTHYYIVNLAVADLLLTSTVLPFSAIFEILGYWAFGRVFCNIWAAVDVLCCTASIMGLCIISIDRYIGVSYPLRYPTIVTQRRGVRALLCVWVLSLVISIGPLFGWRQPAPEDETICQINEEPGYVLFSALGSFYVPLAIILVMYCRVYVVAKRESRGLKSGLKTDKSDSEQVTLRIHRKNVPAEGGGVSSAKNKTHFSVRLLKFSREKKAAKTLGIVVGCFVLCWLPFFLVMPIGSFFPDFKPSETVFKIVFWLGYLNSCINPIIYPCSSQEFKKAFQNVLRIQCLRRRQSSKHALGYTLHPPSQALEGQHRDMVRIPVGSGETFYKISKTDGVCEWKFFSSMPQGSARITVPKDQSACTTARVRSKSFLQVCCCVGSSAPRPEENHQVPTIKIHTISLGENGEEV
Assay: Radioligand binding, [3H] prazosin displacement, rat submaxillary membranes
In short: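 Displacement of [3H]prazosin measured by filtration and counting, with Ki from IC50 via Cheng–Prusoff and nonspecific binding set by 300 nM prazosin. Native rat submaxillary (α1A) or liver (α1B) membranes, 150-250 μg protein, 1 h at 24-25° C in Tris/EDTA pH 7.4.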

pKi ([3H] prazosin displacement, rat submaxillary membranes, read-out: Affinity (Ki) α1A (Rat Submaxillary)): 9.01
α1B/α1A (ratio of binding affinities, rat liver / rat submaxillary): 130
Compound: CC(C)Oc1ccccc1N1CCN(CCCN2C(=O)C3CC(O)C(O)CC3C2=O)CC1 (centres unmarked) [Compound No. 23, 2-[3-{4-(2-Isopropoxyphenyl)piperazin-1-yl}propyl]-5,6-dihydroxy-3a,4,5,6,7,7a, hexahydro-1H-isoindole-1,3(2H)-dione-hydrochloride]
